What was measured:
Bcr/Abl fusion protein = Bcr/Abl fusion protein (Homo sapiens, UniProt P00519); assay: Inhibition of wild type Bcr-Abl (unknown origin) using Abltide as substrate incubated for 1 hr by luminescence based ADP-glo assay; format: protein assay
[1] = Inhibition of Bcr-Abl T315Ialpha mutant (unknown origin) using Abltide as substrate incubated for 1 hr by luminescence based ADP-glo assay; set-up: species or system Homo sapiens
BaF3 [2] = assay: Antiproliferative activity against mouse BaF3 cells harbouring Bcr-Abl T315I assessed of cell viability at 30 uM incubated for 72 hrs by Celltiter-glo luminescent cell viability assay relative to control; format: functional
HEK293 = assay: Antiproliferative activity against HEK293 cells after 48 hrs by MTT assay; format: toxicity, cell-based; set-up: concentration or dose not given beside the values; details: human, hek293, 48 h
THP-1 = assay: Antiproliferative activity against human THP-1 cells after 48 hrs by MTT assay; format: functional; set-up: concentration or dose not given beside the values
K562 = assay: cells; details: Homo sapiens, K562, 48 h
BaF3 [3] = assay: Antiproliferative activity against mouse BaF3 cells harbouring Bcr-Abl T315I assessed of cell viability at 10 uM incubated for 72 hrs by Celltiter-glo luminescent cell viability assay relative to control; format: functional
BaF3 [4] = assay: Antiproliferative activity against mouse BaF3 cells harbouring Bcr-Abl T315I assessed of cell viability at 2 uM incubated for 72 hrs by Celltiter-glo luminescent cell viability assay relative to control; format: functional

Chain of Bcr/Abl fusion protein (P00519 whole entry, the tested form may be a part): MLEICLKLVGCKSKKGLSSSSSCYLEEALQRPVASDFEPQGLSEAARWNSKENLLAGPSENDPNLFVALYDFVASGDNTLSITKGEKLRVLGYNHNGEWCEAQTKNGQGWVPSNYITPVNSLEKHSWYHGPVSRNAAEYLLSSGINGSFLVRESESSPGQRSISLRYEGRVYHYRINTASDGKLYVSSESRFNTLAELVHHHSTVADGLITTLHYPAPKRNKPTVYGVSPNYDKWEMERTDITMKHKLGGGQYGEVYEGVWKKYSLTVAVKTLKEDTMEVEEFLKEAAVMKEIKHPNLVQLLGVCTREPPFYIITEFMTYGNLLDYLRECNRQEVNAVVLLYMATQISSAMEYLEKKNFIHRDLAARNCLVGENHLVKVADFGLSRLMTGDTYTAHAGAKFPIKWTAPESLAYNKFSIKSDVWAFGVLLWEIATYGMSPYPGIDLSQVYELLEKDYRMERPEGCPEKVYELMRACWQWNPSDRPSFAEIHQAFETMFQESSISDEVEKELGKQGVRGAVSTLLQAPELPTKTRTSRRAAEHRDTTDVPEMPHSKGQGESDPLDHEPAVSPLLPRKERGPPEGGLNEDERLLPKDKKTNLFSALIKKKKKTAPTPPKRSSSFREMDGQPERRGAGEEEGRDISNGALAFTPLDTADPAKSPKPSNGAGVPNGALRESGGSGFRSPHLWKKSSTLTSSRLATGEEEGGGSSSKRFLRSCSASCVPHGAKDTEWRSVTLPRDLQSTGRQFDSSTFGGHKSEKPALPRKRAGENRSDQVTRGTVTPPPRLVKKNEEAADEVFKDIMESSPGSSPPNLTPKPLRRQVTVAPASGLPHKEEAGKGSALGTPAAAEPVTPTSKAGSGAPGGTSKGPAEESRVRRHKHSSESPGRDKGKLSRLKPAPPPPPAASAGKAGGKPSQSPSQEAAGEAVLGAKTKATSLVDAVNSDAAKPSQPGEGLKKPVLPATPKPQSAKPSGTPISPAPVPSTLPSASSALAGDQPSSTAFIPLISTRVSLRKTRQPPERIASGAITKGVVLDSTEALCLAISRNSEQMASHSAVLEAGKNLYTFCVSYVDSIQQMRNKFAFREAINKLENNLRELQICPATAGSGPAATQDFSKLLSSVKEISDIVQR
Chain of Bcr/Abl fusion protein (P11274 whole entry, further chain, the tested form may be a part): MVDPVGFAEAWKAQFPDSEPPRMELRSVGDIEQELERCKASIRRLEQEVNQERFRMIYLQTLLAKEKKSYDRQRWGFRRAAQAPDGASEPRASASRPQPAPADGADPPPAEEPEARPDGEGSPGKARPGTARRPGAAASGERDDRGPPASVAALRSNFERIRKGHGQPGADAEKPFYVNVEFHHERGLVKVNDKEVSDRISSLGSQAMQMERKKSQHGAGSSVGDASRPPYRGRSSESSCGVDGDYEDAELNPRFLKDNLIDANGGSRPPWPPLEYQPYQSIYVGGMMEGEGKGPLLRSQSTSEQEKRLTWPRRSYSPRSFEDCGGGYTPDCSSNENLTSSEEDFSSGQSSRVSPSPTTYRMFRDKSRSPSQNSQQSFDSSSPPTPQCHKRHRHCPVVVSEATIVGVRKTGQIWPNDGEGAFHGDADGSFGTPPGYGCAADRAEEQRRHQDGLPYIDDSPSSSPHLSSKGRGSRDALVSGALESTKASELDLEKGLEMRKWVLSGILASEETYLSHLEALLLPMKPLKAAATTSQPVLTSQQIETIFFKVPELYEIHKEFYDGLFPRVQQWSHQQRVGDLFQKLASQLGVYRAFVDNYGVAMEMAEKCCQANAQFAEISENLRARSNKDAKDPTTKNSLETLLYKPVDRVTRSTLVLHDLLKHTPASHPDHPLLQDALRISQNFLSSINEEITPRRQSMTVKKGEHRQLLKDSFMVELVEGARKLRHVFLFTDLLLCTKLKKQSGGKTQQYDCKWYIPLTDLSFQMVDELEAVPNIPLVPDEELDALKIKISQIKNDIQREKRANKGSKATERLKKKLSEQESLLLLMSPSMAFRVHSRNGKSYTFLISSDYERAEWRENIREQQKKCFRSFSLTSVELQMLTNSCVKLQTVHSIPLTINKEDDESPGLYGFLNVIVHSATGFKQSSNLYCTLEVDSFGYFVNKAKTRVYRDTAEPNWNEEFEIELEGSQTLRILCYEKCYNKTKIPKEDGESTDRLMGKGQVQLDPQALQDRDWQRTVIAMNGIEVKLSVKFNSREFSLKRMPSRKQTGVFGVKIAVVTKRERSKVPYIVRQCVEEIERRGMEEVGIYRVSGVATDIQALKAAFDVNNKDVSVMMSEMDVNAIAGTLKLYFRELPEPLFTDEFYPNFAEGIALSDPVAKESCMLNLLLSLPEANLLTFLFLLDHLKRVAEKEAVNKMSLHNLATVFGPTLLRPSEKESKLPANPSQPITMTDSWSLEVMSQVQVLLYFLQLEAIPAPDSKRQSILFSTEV

SMILES: CCN(CC)C(=O)c1cncc(-c2ccc(C(=O)N[C@@H](CO)C(=O)Nc3ccc(Cl)c(C(F)(F)F)c3)cc2)c1
- IC50 (Bcr/Abl fusion protein): 0.27 nM
- IC50 [1]: 261 nM
- inhibition at 30 µM (BaF3 [2]): -1.59%
- Activity (HEK293): 74%
- Activity (THP-1): 100%
- IC50 (K562): 12.2 nM

SMILES: CC(=O)Nc1cc(-c2ccc(C(=O)N[C@@H](CO)C(=O)Nc3ccc(Cl)c(C(F)(F)F)c3)cc2)ccn1
- IC50 (Bcr/Abl fusion protein): 0.8 nM
- IC50 [1]: 136 nM
- inhibition at 30 µM (BaF3 [2]): 58.8%
- Activity (HEK293): 91%
- Activity (THP-1): 72%
- IC50 (K562): 2.64 nM

SMILES: CC(C)(C)OC[C@H](NC(=O)c1ccc(-c2ccnc(C(=O)NC3CC3)c2)cc1)C(=O)Nc1ccc(Cl)c(C(F)(F)F)c1
- IC50 (Bcr/Abl fusion protein): 11.4 nM
- IC50 [1]: 183 nM
- inhibition at 10 µM (BaF3 [3]): 22.5%
- inhibition at 2 µM (BaF3 [4]): 0%
- Activity (HEK293): 84%
- Activity (THP-1): 62%
- IC50 (K562): 10.7 nM

SMILES: CC(C)(C)OC[C@H](NC(=O)c1cccc(-c2ccc(NC(=O)C3CC3)nc2)c1)C(=O)Nc1ccc(Cl)c(C(F)(F)F)c1
- IC50 (Bcr/Abl fusion protein): 3.75 nM
- IC50 [1]: 204 nM
- inhibition at 30 µM (BaF3 [2]): -4.27%
- Activity (HEK293): 92%
- Activity (THP-1): 74%

SMILES: Nc1cc(-c2ccc(C(=O)N[C@@H](CO)C(=O)Nc3ccc(Cl)c(C(F)(F)F)c3)cc2)ccn1
- IC50 (Bcr/Abl fusion protein): 0.24 nM
- IC50 [1]: 99 nM
- inhibition at 30 µM (BaF3 [2]): -3.39%
- Activity (HEK293): 83%
- Activity (THP-1): 100%
- IC50 (K562): 0.36 nM

SMILES: CC(C)(C)C(=O)Nc1ccc(-c2cccc(C(=O)N[C@@H](CO)C(=O)Nc3ccc(Cl)c(C(F)(F)F)c3)c2)cn1
- IC50 (Bcr/Abl fusion protein): 7.29 nM
- IC50 [1]: 504 nM
- inhibition at 10 µM (BaF3 [3]): 96.8%
- inhibition at 2 µM (BaF3 [4]): 0.99%
- Activity (HEK293): 100%
- Activity (THP-1): 77%
- IC50 (K562): 4.86 nM

SMILES: CS(=O)(=O)Nc1cc(-c2ccc(C(=O)N[C@@H](CO)C(=O)Nc3ccc(Cl)c(C(F)(F)F)c3)cc2)ccn1
- IC50 (Bcr/Abl fusion protein): 0.33 nM
- IC50 [1]: 87 nM
- inhibition at 30 µM (BaF3 [2]): 5.71%
- Activity (HEK293): 78%
- Activity (THP-1): 87%
- IC50 (K562): 0.13 nM

SMILES: CC(=O)Nc1ccc(-c2cccc(C(=O)N[C@H](C(=O)Nc3ccc(Cl)c(C(F)(F)F)c3)C(C)(C)C)c2)cn1
- IC50 (Bcr/Abl fusion protein): 7.26 nM
- IC50 [1]: 165 nM
- inhibition at 10 µM (BaF3 [3]): 100%
- inhibition at 2 µM (BaF3 [4]): 7.81%
- Activity (HEK293): 86%
- Activity (THP-1): 100%
- IC50 (K562): 10.1 nM

SMILES: CCN(CC)C(=O)c1cncc(-c2cccc(C(=O)N[C@H](C(=O)Nc3ccc(Cl)c(C(F)(F)F)c3)C(C)(C)C)c2)c1
- IC50 (Bcr/Abl fusion protein): 6.69 nM
- IC50 [1]: 148 nM
- inhibition at 30 µM (BaF3 [2]): 50.8%
- Activity (HEK293): 100%
- Activity (THP-1): 55%
- IC50 (K562): 2.66 nM

SMILES: CC(C)(C)C(=O)Nc1cc(-c2ccc(C(=O)N[C@H](C(=O)Nc3ccc(Cl)c(C(F)(F)F)c3)C(C)(C)C)cc2)ccn1
- IC50 (Bcr/Abl fusion protein): 16.8 nM
- IC50 [1]: 481 nM
- inhibition at 30 µM (BaF3 [2]): 8.24%
- Activity (HEK293): 87%
- Activity (THP-1): 94%
- IC50 (K562): 5.36 nM

SMILES: O=C(NC1CC1)c1cncc(-c2ccc(C(=O)N[C@@H](CO)C(=O)Nc3ccc(Cl)c(C(F)(F)F)c3)cc2)c1
- IC50 (Bcr/Abl fusion protein): 1.11 nM
- IC50 [1]: 60 nM
- inhibition at 30 µM (BaF3 [2]): 82.5%
- Activity (HEK293): 89%
- Activity (THP-1): 58%
- IC50 (K562): 1.68 nM

SMILES: CCN(CC)C(=O)c1cncc(-c2cccc(C(=O)N[C@@H](COC(C)(C)C)C(=O)Nc3ccc(Cl)c(C(F)(F)F)c3)c2)c1
- IC50 (Bcr/Abl fusion protein): 33 nM
- IC50 [1]: 132 nM
- inhibition at 30 µM (BaF3 [2]): 58.4%
- Activity (HEK293): 100%
- Activity (THP-1): 84%
- IC50 (K562): 8.11 nM

SMILES: Cc1ccc(C(=O)Nc2ccc(CN3CCN(C)CC3)c(C(F)(F)F)c2)cc1C#Cc1cnc2cccnn12 [PONATINIB]
- Activity (HEK293): 55%
- Activity (THP-1): 3%
- IC50 (K562): 0.049 nM

SMILES: CC(C)(C)OC[C@H](NC(=O)c1ccc(-c2cncc(C(=O)NC3CC3)c2)cc1)C(=O)Nc1ccc(Cl)c(C(F)(F)F)c1
- IC50 (Bcr/Abl fusion protein): 15.5 nM
- IC50 [1]: 128 nM
- inhibition at 30 µM (BaF3 [2]): 69.7%
- Activity (HEK293): 84%
- Activity (THP-1): 79%
- IC50 (K562): 2.5 nM

SMILES: CC(C)(C)[C@H](NC(=O)c1cccc(-c2cncc(C(=O)NC3CC3)c2)c1)C(=O)Nc1ccc(Cl)c(C(F)(F)F)c1
- IC50 (Bcr/Abl fusion protein): 34 nM
- IC50 [1]: 207 nM
- inhibition at 10 µM (BaF3 [3]): 65.6%
- inhibition at 2 µM (BaF3 [4]): 7.2%
- Activity (HEK293): 90%
- Activity (THP-1): 100%
- IC50 (K562): 8.47 nM

SMILES: CC(C)(C)OC[C@H](NC(=O)c1cccc(-c2cncc(C(=O)NC3CC3)c2)c1)C(=O)Nc1ccc(Cl)c(C(F)(F)F)c1
- IC50 (Bcr/Abl fusion protein): 9.3 nM
- IC50 [1]: 608 nM
- inhibition at 10 µM (BaF3 [3]): 94.1%
- inhibition at 2 µM (BaF3 [4]): 1.93%
- Activity (HEK293): 95%
- Activity (THP-1): 69%
- IC50 (K562): 8.86 nM

SMILES: CC(C)(C)OC[C@H](NC(=O)c1cccc(-c2ccc(NC(=O)C(C)(C)C)nc2)c1)C(=O)Nc1ccc(Cl)c(C(F)(F)F)c1
- IC50 (Bcr/Abl fusion protein): 8.61 nM
- IC50 [1]: 436 nM
- inhibition at 30 µM (BaF3 [2]): -5.67%
- Activity (HEK293): 72%
- Activity (THP-1): 73%
- IC50 (K562): 1.26 nM

SMILES: CC(C)(C)OC[C@H](NC(=O)c1ccc(-c2ccnc(NC(=O)C(C)(C)C)c2)cc1)C(=O)Nc1ccc(Cl)c(C(F)(F)F)c1
- IC50 (Bcr/Abl fusion protein): 4.44 nM
- IC50 [1]: 303 nM
- inhibition at 30 µM (BaF3 [2]): -3.86%
- Activity (HEK293): 90%
- Activity (THP-1): 63%
- IC50 (K562): 3.12 nM

SMILES: CCN(CC)C(=O)c1cncc(-c2cccc(C(=O)N[C@@H](CO)C(=O)Nc3ccc(Cl)c(C(F)(F)F)c3)c2)c1
- IC50 (Bcr/Abl fusion protein): 3.57 nM
- IC50 [1]: 295 nM
- inhibition at 30 µM (BaF3 [2]): 53.2%
- Activity (HEK293): 84%
- Activity (THP-1): 75%
- IC50 (K562): 4.92 nM

SMILES: CC(C)(C)OC[C@H](NC(=O)c1cccc(-c2ccc(N)nc2)c1)C(=O)Nc1ccc(Cl)c(C(F)(F)F)c1
- IC50 (Bcr/Abl fusion protein): 0.27 nM
- IC50 [1]: 105 nM
- inhibition at 30 µM (BaF3 [2]): -5%
- Activity (HEK293): 96%
- Activity (THP-1): 100%
- IC50 (K562): 1.27 nM

SMILES: O=C(NC1CC1)c1cncc(-c2cccc(C(=O)N[C@@H](CO)C(=O)Nc3ccc(Cl)c(C(F)(F)F)c3)c2)c1
- IC50 (Bcr/Abl fusion protein): 1.35 nM
- IC50 [1]: 348 nM
- inhibition at 30 µM (BaF3 [2]): 66.1%
- Activity (HEK293): 99%
- Activity (THP-1): 72%
- IC50 (K562): 2.79 nM

SMILES: CCN(CC)C(=O)c1cncc(-c2ccc(C(=O)N[C@H](C(=O)Nc3ccc(Cl)c(C(F)(F)F)c3)C(C)(C)C)cc2)c1
- IC50 (Bcr/Abl fusion protein): 4.5 nM
- IC50 [1]: 185 nM
- inhibition at 30 µM (BaF3 [2]): 42.8%
- Activity (HEK293): 97%
- Activity (THP-1): 56%
- IC50 (K562): 10.2 nM

SMILES: CS(=O)(=O)Nc1ccc(-c2cccc(C(=O)N[C@@H](CO)C(=O)Nc3ccc(Cl)c(C(F)(F)F)c3)c2)cn1
- IC50 (Bcr/Abl fusion protein): 0.93 nM
- IC50 [1]: 217 nM
- inhibition at 30 µM (BaF3 [2]): 62.8%
- Activity (HEK293): 94%
- Activity (THP-1): 83%
- IC50 (K562): 1.33 nM

SMILES: CCN(CC)C(=O)c1cncc(-c2ccc(C(=O)N[C@@H](COC(C)(C)C)C(=O)Nc3ccc(Cl)c(C(F)(F)F)c3)cc2)c1
- IC50 (Bcr/Abl fusion protein): 5.46 nM
- IC50 [1]: 144 nM
- inhibition at 30 µM (BaF3 [2]): 35%
- Activity (HEK293): 73%
- Activity (THP-1): 100%
- IC50 (K562): 6.26 nM

SMILES: CC(=O)Nc1ccc(-c2cccc(C(=O)N[C@@H](COC(C)(C)C)C(=O)Nc3ccc(Cl)c(C(F)(F)F)c3)c2)cn1
- IC50 (Bcr/Abl fusion protein): 56 nM
- IC50 [1]: 723 nM
- inhibition at 30 µM (BaF3 [2]): 77.1%
- Activity (HEK293): 98%
- Activity (THP-1): 64%
- IC50 (K562): 19.4 nM

Reference: ChEMBL document CHEMBL6083208, “Integrating amino acids into Bcr-Abl inhibitors: design, synthesis, biological evaluation, and in silico studies” (RSC Med Chem, 2024)
